This experiment deals with MSH3. The experiment can be described thus: QPCR assay for levels of MSH3 upon compound treatment in HEK293T or AD293 cells (fold-change of MSH3 transcript, EC50 of MSH3 downregulation; total MSH3 exons 13/14, exons 20/21; Table 8). It is filed as cell-based. To be noted: for mrna remaining at 1 µM / mrna remaining at 10 µM: Homo sapiens, fold-change of the MSH3 transcript, normalized to GAPDH; for mrna remaining at 1 µM: 1 μM compound; for mrna remaining at 10 µM: 10 μM compound; for EC50: EC50 of MSH3 downregulation, XtalPi. In short, it runs like this: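 MSH3 mRNA was quantified by TaqMan qPCR covering exons 13/14, exons 20/21, exon 13/PE14A and exon 20/PE21A, with GAPDH as reference. Cells used were HEK293T or AD293, treated with compound at 1 μM and […].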

On to `Cc1nn(C)nc1-c1cc2c(nn1)CN(c1ccc(O[C@H]3C[C@]4(C)CC[C@](C)(C3)N4)nn1)C2=O` [Compound 596, 3-(2,5-dimethyl-2H-1,2,3-triazol-4-yl)-6-(6-(((1R,3s,5S)-1,5-dimethyl-8-azabicyclo[3.2.1]octan-3-yl)oxy)pyridazin-3-yl)-6,7-dihydro-5H-pyrrolo[3,4-c]pyridazin-5-one], for which the mrna remaining at 1 µM is 88% and the mrna remaining at 10 µM was 106%.
In the case of `Cc1nn(C)nc1-c1cnc2c(c1)C(=O)N(c1ccc(N3CC4CCC3CN4)nn1)C2` (stereo not shown) [Compound 563, 6-(6-(2,5-diazabicyclo[2.2.2]octan-2-yl)pyridazin-3-yl)-3-(2,5-dimethyl-2H-1,2,3-triazol-4-yl)-6,7-dihydro-5H-pyrrolo[3,4-b]pyridin-5-one], the mrna remaining at 1 µM came to 104% and the mrna remaining at 10 µM worked out at 35%.
For `Cn1ncc(-c2cnc3c(c2)C(=O)N(c2ccc(O[C@H]4C[C@]5(C)CC[C@](C)(C4)N5)nn2)C3)n1` [Compound 599, 6-(6-(((1R,3s,5S)-1,5-dimethyl-8-azabicyclo[3.2.1]octan-3-yl)oxy)pyridazin-3-yl)-3-(2-methyl-2H-1,2,3-triazol-4-yl)-6,7-dihydro-5H-pyrrolo[3,4-b]pyridin-5-one], the mrna remaining at 1 µM was found to be 94% and the mrna remaining at 10 µM is 24%.
In the case of `[2H]C([2H])([2H])n1cc(-c2cnc3c(c2)C(=O)N(c2ccc(N(C)C4CC(C)(C)NC(C)(C)C4)nn2)C3)cn1` [Compound 161, 6-(6-(methyl(2,2,6,6-tetramethylpiperidin-4-yl)amino)pyridazin-3-yl)-3-(1-(methyl-d3)-1H-pyrazol-4-yl)-6,7-dihydro-5H-pyrrolo[3,4-b]pyridin-5-one], the mrna remaining at 1 µM is 96% and the mrna remaining at 10 µM came out at 70%.
The term EC50 denotes the concentration at which the effect is half-maximal. A lower EC50 goes with an effect from little substance. On to `Cc1nn(C)nc1-c1cnc2c(c1)C(=O)N(c1ccc(N(C)[C@H]3C[C@]4(C)CC[C@](C)(C3)N4)nn1)C2` [Compound 178, 3-(2,5-dimethyl-2H-1,2,3-triazol-4-yl)-6-(6-(((1R,3s,5S)-1,5-dimethyl-8-azabicyclo[3.2.1]octan-3-yl)(methyl)amino)pyridazin-3-yl)-6,7-dihydro-5H-pyrrolo[3,4-b]pyridin-5-one], for which the EC50 came out at 425 nM, the mrna remaining at 1 µM was 10% and the mrna remaining at 10 µM was 5%.
On to `Cn1nc(Cl)c(-c2cnc3c(c2)C(=O)N(c2ccc(OC4CCC(C)(C)NC(C)(C)C4)nn2)C3)n1` (stereo not shown) [Compound 488, 3-(5-chloro-2-methyl-2H-1,2,3-triazol-4-yl)-6-(6-((2,2,7,7-tetramethylazepan-4-yl)oxy)pyridazin-3-yl)-6,7-dihydro-5H-pyrrolo[3,4-b]pyridin-5-one], for which the mrna remaining at 1 µM came out at 69% and the mrna remaining at 10 µM came out at 19%.
For `Cc1nc(C)c(-c2cc(F)c3c(c2)C(=O)N(c2ccc(O[C@H]4C[C@]5(C)CC[C@](C)(C4)N5)nn2)C3)s1` [Compound 286, 2-(6-(((1R,3s,5S)-1,5-dimethyl-8-azabicyclo[3.2.1]octan-3-yl)oxy)pyridazin-3-yl)-6-(2,4-dimethylthiazol-5-yl)-4-fluoroisoindolin-1-one], the mrna remaining at 1 µM is 117% and the mrna remaining at 10 µM stood at 59%.
In the case of `Cn1nc(Cl)c(-c2cnc3c(c2)C(=O)N(c2ccc(N4CCN5CCC[C@H]5C4)nn2)C3)n1` [Compound 620, (S)-3-(5-chloro-2-methyl-2H-1,2,3-triazol-4-yl)-6-(6-(hexahydropyrrolo[1,2-a]pyrazin-2(1H)-yl)pyridazin-3-yl)-6,7-dihydro-5H-pyrrolo[3,4-b]pyridin-5-one], the mrna remaining at 1 µM came out at 93% and the mrna remaining at 10 µM is 55%.
The like results for `Cn1nc(Cl)c(-c2cc(F)c3c(c2)C(=O)N(c2ccc(N4CCN5CCC[C@H]5C4)nn2)C3)n1` [Compound 671, (S)-6-(5-chloro-2-methyl-2H-1,2,3-triazol-4-yl)-4-fluoro-2-(6-(hexahydropyrrolo[1,2-a]pyrazin-2(1H)-yl)pyridazin-3-yl)isoindolin-1-one] were, in that order, 94% and 47%.
Turning to `CN(c1ccc(N2Cc3ncc(-c4nn(C)nc4Cl)nc3C2=O)nn1)C1CC(C)(C)NC2(CCC2)C1` (stereo not shown) [Compound 626, 3-(5-chloro-2-methyl-2H-1,2,3-triazol-4-yl)-6-(6-((6,6-dimethyl-5-azaspiro[3.5]nonan-8-yl)(methyl)amino)pyridazin-3-yl)-6,7-dihydro-5H-pyrrolo[3,4-b]pyrazin-5-one], the mrna remaining at 1 µM was 98% and the mrna remaining at 10 µM came out at 28%.
As to `Cc1nn(C)nc1-c1cc(F)c2c(c1)C(=O)N(c1ccc(OC3CC(C)(C)NC(C)(C)C3)nn1)C2` [Compound 282, 6-(2,5-dimethyl-2H-1,2,3-triazol-4-yl)-4-fluoro-2-(6-((2,2,6,6-tetramethylpiperidin-4-yl)oxy)pyridazin-3-yl)isoindolin-1-one], the mrna remaining at 1 µM was 30% and the mrna remaining at 10 µM was 59%.
For `Cc1cn(-c2cc(C#N)c3c(c2)C(=O)N(c2ccc(N(C)[C@H]4C[C@]5(C)CC[C@](C)(C4)N5)nn2)C3)nn1` [Compound 695, 2-(6-(((1R,3s,5S)-1,5-dimethyl-8-azabicyclo[3.2.1]octan-3-yl)(methyl)amino)pyridazin-3-yl)-6-(4-methyl-1H-1,2,3-triazol-1-yl)-1-oxoisoindoline-4-carbonitrile], a half-maximal response (EC50) required 11100 nM.
For the compound `Cc1nn(C)nc1-c1cc(F)c2c(c1)C(=O)N(c1ccc(N3CCN[C@H](C(C)C)C3)nn1)C2` [Compound 640, (R)-6-(2,5-dimethyl-2H-1,2,3-triazol-4-yl)-4-fluoro-2-(6-(3-isopropylpiperazin-1-yl)pyridazin-3-yl)isoindolin-1-one], the mrna remaining at 1 µM was 99% and the mrna remaining at 10 µM came to 25%.
Regarding `C[C@@H]1CN(c2ccc(N3Cc4c(F)cc(-c5nn(C)nc5Cl)cc4C3=O)nn2)C[C@H](C)N1` [Compound 636, 6-(5-chloro-2-methyl-2H-1,2,3-triazol-4-yl)-2-(6-((3S,5R)-3,5-dimethylpiperazin-1-yl)pyridazin-3-yl)-4-fluoroisoindolin-1-one], the mrna remaining at 1 µM was determined as 95% and the mrna remaining at 10 µM came to 41%.
For the compound `Cn1nc(Cl)c(-c2cc(F)c3c(c2)C(=O)N(c2ccc(N4CCC(NC5CC5)C4)nn2)C3)n1` (stereo not shown) [Compound 652, 6-(5-chloro-2-methyl-2H-1,2,3-triazol-4-yl)-2-(6-(3-(cyclopropylamino)pyrrolidin-1-yl)pyridazin-3-yl)-4-fluoroisoindolin-1-one], the mrna remaining at 1 µM stood at 103% and the mrna remaining at 10 µM was 79%.
Take `Cc1nn(C)nc1-c1cc(Cl)c2c(c1)C(=O)N(c1ccc(OC3CC(C)(C)NC(C)(C)C3)nn1)C2` [Compound 664, 4-chloro-6-(2,5-dimethyl-2H-1,2,3-triazol-4-yl)-2-(6-((2,2,6,6-tetramethylpiperidin-4-yl)oxy)pyridazin-3-yl)isoindolin-1-one]: the mrna remaining at 1 µM was 94% and the mrna remaining at 10 µM amounted to 20%.
For the compound `CN(c1ccc(N2Cc3ccc(-c4cnn(C)n4)cc3C2=O)nn1)C1CC(C)(C)NC(C)(C)C1` [Compound 370, 2-(6-(methyl(2,2,6,6-tetramethylpiperidin-4-yl)amino)pyridazin-3-yl)-6-(2-methyl-2H-1,2,3-triazol-4-yl)isoindolin-1-one], the mrna remaining at 1 µM worked out at 69% and the mrna remaining at 10 µM was determined as 61%.

The record behind these values is patent US20260315464A1, “COMPOSITIONS, METHODS, AND SYSTEMS FOR MODULATING SPLICING OF MSH3” (REVIR THERAPEUTICS, INC., priority 2023, published 2026).
